Experimental data as given in paper PMC5908784, “Extracellular loops 2 and 3 of the calcitonin receptor selectively modify agonist binding and efficacy” (Biochemical Pharmacology, 2018).
Changes are numbered by the printed parent chain. Like-named read-outs stand apart in the source and are kept apart here. Where a SMILES comes first, the peptide text is derived from it. Bridges are numbered along the chain shown (N, C = ends).

Key:
Assay type in all cases: cell-based
hCTR E294A = target: T1, hCTR E294A (Homo sapiens, UniProt P30988, E294A); assay: IP1 accumulation; conditions: mean ± S.E.M.; for Emax: IP1 maximal response, SEM
T1 construct: c-Myc (N); expressed in transfected cells
T1 sequence (P30988 25-474 E294A): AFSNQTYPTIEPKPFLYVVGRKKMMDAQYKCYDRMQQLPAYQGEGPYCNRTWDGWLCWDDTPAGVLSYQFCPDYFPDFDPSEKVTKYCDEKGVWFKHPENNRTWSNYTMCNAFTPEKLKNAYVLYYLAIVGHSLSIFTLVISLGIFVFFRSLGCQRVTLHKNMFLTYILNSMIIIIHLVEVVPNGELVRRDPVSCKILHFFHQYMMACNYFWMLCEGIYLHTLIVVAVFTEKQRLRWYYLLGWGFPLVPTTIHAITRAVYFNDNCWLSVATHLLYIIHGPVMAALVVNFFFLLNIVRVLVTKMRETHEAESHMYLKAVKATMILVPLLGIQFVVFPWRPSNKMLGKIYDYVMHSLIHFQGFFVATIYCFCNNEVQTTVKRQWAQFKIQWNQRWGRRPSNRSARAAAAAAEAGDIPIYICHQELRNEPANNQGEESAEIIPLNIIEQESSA
Outline: (§1)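 HTRF IP-One readout of IP1 after 60 min ligand stimulation (LiCl present), cells seeded overnight. Normalized to 100 μM ATP max response. EC50/Emax via 3-parameter logistic curve fit.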

hCTR F285A [1] = target: T2, hCTR F285A (Homo sapiens, UniProt P30988, F285A); assay: IP1 accumulation; conditions: mean ± S.E.M.; for Emax: IP1 maximal response, SEM
T2 construct: expressed in transfected cells
T2 sequence (P30988 25-474 F285A): T1 sequence (P30988 25-474 E294A) with F261A, A270E
Outline: as §1

hCTR L298A = target: T3, hCTR L298A (Homo sapiens, UniProt P30988, L298A); assay: IP1 accumulation; conditions: for Emax: read-out: Emax (% WT), SEM
T3 construct: c-Myc (N); expressed in transfected cells
T3 sequence (P30988 25-474 L298A): T1 sequence (P30988 25-474 E294A) with A270E, L274A
Outline: as §1

hCTR F285A [2] = target: T2, hCTR F285A; assay: ERK1/2 phosphorylation; conditions: CV1-FlpIn cells, mean ± S.E.M.; for Emax: pERK maximal response
Procedure: (§2) Cells (2.5 × 10^4 cells/well) were seeded into 96-well culture plates and incubated overnight. […] Data were normalized to the maximal response elicited by 10% FBS determined at 6 min.
(§3) Data were corrected for radioligand occupancy using the Cheng-Prusoff equation in Prism; as such data are reported as pKi. Emax and EC50 were estimated from concentration-response curves using with a 3-parameter logistic equation in Prism (v7). These values are a composite of functional affinity, efficacy and stimulus response coupling. […] Significance was accepted at P < 0.05.

hCTR N365A = target: T4, hCTR N365A (Homo sapiens, UniProt P30988, N365A); assay: ERK1/2 phosphorylation; conditions: CV1-FlpIn cells, mean ± S.E.M.; for Emax: pERK maximal response
T4 construct: c-Myc (N); expressed in transfected cells
T4 sequence (P30988 25-474 N365A): T1 sequence (P30988 25-474 E294A) with A270E, N341A
Procedure: as §2, §3

hCTR Y284A = target: T5, hCTR Y284A (Homo sapiens, UniProt P30988, Y284A); assay: ERK1/2 phosphorylation; conditions: CV1-FlpIn cells, mean ± S.E.M.; for Emax: pERK maximal response
T5 construct: expressed in transfected cells
T5 sequence (P30988 25-474 Y284A): T1 sequence (P30988 25-474 E294A) with Y260A, A270E
Procedure: as §2, §3

[3] = IP1, CV1-FlpIn cells, 60 min, LiCl
[4] = pERK, three-parameter logistic fit

| Compound | Emax (hCTR E294A) [%] | Emax (hCTR F285A [1]) [%] | Emax (hCTR L298A) [%] | Emax (hCTR F285A [2]) [%] | Emax (hCTR N365A) [%] | Emax (hCTR Y284A) [%] | EC50 (hCTR E294A; [3]) [nM] | EC50 (hCTR F285A [1]; [3]) [nM] | EC50 (hCTR L298A; L298A, IP1, CV1-FlpIn cells, 60 min, LiCl, mean ± S.E.M.) [nM] | Emax (hCTR L298A; L298A, IP1 maximal response, mean ± S.E.M.) [%] | EC50 (hCTR F285A [2]; [4]) [nM] | EC50 (hCTR N365A; [4]) [nM] | EC50 (hCTR Y284A; [4]) [nM] |
| --- | --- | --- | --- | --- | --- | --- | --- | --- | --- | --- | --- | --- | --- |
| CC[C@H](C)[C@H](NC(=O)[C@H](C)NC(=O)[C@@H](NC(=O)[C@H](CCC(N)=O)NC(=O)[C@@H]1CCCN1C(=O)[C@H](Cc1ccccc1)NC(=O)[C@@H](NC(=O)[C@H](Cc1c[nH]cn1)NC(=O)[C@H](Cc1ccccc1)NC(=O)[C@H](CCCCN)NC(=O)[C@H](CC(N)=O)NC(=O)[C@H](Cc1ccccc1)NC(=O)[C@H](CC(=O)O)NC(=O)[C@H](CCC(N)=O)NC(=O)[C@@H](NC(=O)[C@H](Cc1ccc(O)cc1)NC(=O)[C@@H](NC(=O)CNC(=O)[C@H](CC(C)C)NC(=O)[C@H](CCSC)NC(=O)[C@@H]1CSSC[C@H](N)C(=O)NCC(=O)N[C@@H](CC(N)=O)C(=O)N[C@@H](CC(C)C)C(=O)N[C@@H](CO)C(=O)N[C@@H]([C@@H](C)O)C(=O)N1)[C@@H](C)O)[C@@H](C)O)[C@@H](C)O)[C@@H](C)O)C(=O)NCC(=O)N[C@H](C(=O)NCC(=O)N[C@@H](C)C(=O)N1CCC[C@H]1C(N)=O)C(C)C [hCT] | 57 ± 6 | 58 ± 6 | 58 ± 6 | 91 ± 11 | 93 ± 6 | 82 ± 7 | – | – | – | – | – | – | – |
| CC(C)C[C@H](NC(=O)[C@H](CCCCN)NC(=O)CNC(=O)[C@H](CC(C)C)NC(=O)[C@@H](NC(=O)[C@@H]1CSSC[C@H](N)C(=O)N[C@@H](CO)C(=O)N[C@@H](CC(N)=O)C(=O)N[C@@H](CC(C)C)C(=O)N[C@@H](CO)C(=O)N[C@@H]([C@@H](C)O)C(=O)N1)C(C)C)C(=O)N[C@@H](CO)C(=O)N[C@@H](CCC(N)=O)C(=O)N[C@@H](CCC(=O)O)C(=O)N[C@@H](CC(C)C)C(=O)N[C@@H](Cc1c[nH]cn1)C(=O)N[C@@H](CCCCN)C(=O)N[C@@H](CC(C)C)C(=O)N[C@@H](CCC(N)=O)C(=O)N[C@H](C(=O)N[C@@H](Cc1ccc(O)cc1)C(=O)N1CCC[C@H]1C(=O)N[C@@H](CCCNC(=N)N)C(=O)N[C@H](C(=O)N[C@@H](CC(N)=O)C(=O)N[C@H](C(=O)NCC(=O)N[C@@H](CO)C(=O)NCC(=O)N[C@H](C(=O)N1CCC[C@H]1C(N)=O)[C@@H](C)O)[C@@H](C)O)[C@@H](C)O)[C@@H](C)O [sCT] | 84 ± 5 | 114 ± 6 | 66 ± 5 | 114 ± 6 | 84 ± 3 | 96 ± 6 | – | – | – | – | – | – | – |
| CSCC[C@H](NC(=O)CNC(=O)[C@H](CO)NC(=O)[C@H](Cc1ccccc1)NC(=O)[C@H](CCCNC(=N)N)NC(=O)[C@H](Cc1c[nH]cn1)NC(=O)[C@H](Cc1ccccc1)NC(=O)[C@H](CC(N)=O)NC(=O)[C@H](CC(N)=O)NC(=O)[C@H](CC(C)C)NC(=O)[C@H](CC(N)=O)NC(=O)[C@H](CCCNC(=N)N)NC(=O)[C@H](Cc1c[nH]c2ccccc12)NC(=O)[C@H](Cc1ccc(O)cc1)NC(=O)[C@H](C)NC(=O)[C@H](CO)NC(=O)[C@H](CC(C)C)NC(=O)[C@@H](NC(=O)[C@@H]1CSSC[C@H](N)C(=O)N[C@@H](CO)C(=O)N[C@@H](CC(N)=O)C(=O)N[C@@H](CC(C)C)C(=O)N[C@@H](CO)C(=O)N[C@@H]([C@@H](C)O)C(=O)N1)C(C)C)C(=O)NCC(=O)N[C@@H](Cc1ccccc1)C(=O)NCC(=O)N1CCC[C@H]1C(=O)N[C@@H](CCC(=O)O)C(=O)N[C@H](C(=O)N1CCC[C@H]1C(N)=O)[C@@H](C)O [pCT] (H-CSNLSTCVLSAYWRNLNNFHRFSGMGFGPETP-NH2; disulfide 1-7) | 119 ± 8 | 112 ± 13 | – | 88 ± 5 | 98 ± 10 | 81 ± 6 | 1.29 | 5.01 | 4.07 | 91 ± 10 | 1.82 | 1.62 | 1.2 |
